Data on six molecules can be found in BindingDB's records for doi:10.1016/S1074-5521(99)80072-6 (Ligand Pharmaceuticals Inc, 1999).

The term IC50 denotes the concentration that inhibits the measured activity by half. Higher therefore signals lower potency. The term Ki denotes the dissociation constant of the complex between target and ligand, obtained from inhibition or displacement. Low values mean higher affinity, high ones lower affinity.

Structures are written as SMILES.

Assay [1] deals with T1, Vitamin D-binding protein (Rattus norvegicus, UniProt P04276).
T1 sequence (P04276 whole entry): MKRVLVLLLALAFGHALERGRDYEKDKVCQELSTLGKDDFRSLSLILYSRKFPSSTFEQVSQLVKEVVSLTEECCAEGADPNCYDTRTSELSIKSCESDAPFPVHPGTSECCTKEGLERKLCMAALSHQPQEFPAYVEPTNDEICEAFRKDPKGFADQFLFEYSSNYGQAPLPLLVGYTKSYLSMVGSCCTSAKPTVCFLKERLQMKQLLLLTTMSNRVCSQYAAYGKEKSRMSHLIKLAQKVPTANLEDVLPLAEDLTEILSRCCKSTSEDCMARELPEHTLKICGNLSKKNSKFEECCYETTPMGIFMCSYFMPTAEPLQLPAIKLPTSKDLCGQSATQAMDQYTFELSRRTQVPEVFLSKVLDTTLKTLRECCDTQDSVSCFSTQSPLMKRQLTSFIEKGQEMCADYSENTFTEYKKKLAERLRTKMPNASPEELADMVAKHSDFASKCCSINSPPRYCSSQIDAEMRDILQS
As to the kind of experiment: DBP Binding Assay. The following applies: pH 7.4; 4 °C. An excerpt:
(§1) DBP competition binding assay were done using human serum (Scantibodies) or rat serum (Gibco-BRL).

The target of assay [2] is T2, Vitamin D-binding protein (Homo sapiens, UniProt V9HWI6).
T2 sequence (V9HWI6 whole entry): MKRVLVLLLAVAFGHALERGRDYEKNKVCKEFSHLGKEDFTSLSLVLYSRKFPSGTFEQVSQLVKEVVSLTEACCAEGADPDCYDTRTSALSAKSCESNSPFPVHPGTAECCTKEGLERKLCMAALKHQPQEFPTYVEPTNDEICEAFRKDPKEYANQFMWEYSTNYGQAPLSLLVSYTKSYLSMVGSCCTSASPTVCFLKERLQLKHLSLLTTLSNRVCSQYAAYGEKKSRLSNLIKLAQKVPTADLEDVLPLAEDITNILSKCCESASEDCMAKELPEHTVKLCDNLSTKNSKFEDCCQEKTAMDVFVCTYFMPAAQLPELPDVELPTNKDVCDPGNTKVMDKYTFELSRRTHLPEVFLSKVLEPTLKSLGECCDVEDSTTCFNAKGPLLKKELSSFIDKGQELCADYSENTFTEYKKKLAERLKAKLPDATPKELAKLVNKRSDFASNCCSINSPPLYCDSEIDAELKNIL
Kind of assay: DBP Binding Assay. Conditions: pH 7.4; 4 °C.
Text: as §1

The next assay deals with T3, Vitamin D3 receptor (Homo sapiens, UniProt P11473).
T3 sequence (P11473 whole entry): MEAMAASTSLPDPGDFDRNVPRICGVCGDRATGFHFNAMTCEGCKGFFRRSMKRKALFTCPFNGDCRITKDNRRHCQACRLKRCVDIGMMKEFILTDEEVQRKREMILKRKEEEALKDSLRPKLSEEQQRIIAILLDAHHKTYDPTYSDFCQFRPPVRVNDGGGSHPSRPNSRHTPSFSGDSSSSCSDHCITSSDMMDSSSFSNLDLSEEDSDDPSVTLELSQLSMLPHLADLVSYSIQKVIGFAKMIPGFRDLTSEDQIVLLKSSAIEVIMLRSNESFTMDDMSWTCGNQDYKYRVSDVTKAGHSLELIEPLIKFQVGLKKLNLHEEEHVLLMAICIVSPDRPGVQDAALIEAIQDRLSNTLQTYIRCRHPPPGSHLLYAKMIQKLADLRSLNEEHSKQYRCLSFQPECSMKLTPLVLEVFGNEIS
Kind of assay: VDR Ligand-Binding Assay. Conditions: pH 7.5; 4 °C. The text has this:
VDR in vitro ligand-binding assay using human VDR constructed into a yeast expression plasmid.

Regarding `C=C1/C(=C\C=C\C2CCC3(C)C(CCC3C(C)CCCC(C)(C)O)C2)C[C@@H](C)C[C@@H]1C` (some centres not stated) [1,25(OH)2D3], the 50% inhibitory concentration (IC50) in assay [1] is 40 nM; in assay [2], 200 nM. The affinity on Vitamin D3 receptor corresponds to a Ki of 0.5 nM.
Consider `CC(C)(C)C(=O)COc1ccc(C(C)(C)c2ccc(OCC(=O)C(C)(C)C)c(Cl)c2)cc1Cl` [LG190090], for which the IC50 in assay [2] was over 1000 nM. The inhibition constant (Ki) on Vitamin D3 receptor is over 1000 nM.
`Cc1cc(C2(c3ccc(OCC(=O)C(C)(C)C)c(C)c3)CCCCC2)ccc1OCC(=O)C(C)(C)C` [LG190119] had an IC50 in assay [2] of over 1000 nM. The Ki on Vitamin D3 receptor is over 1000 nM.
The molecule `CCC(CC)(c1ccc(OCC(=O)C(C)(C)C)c(C)c1)c1ccc(OCC(=O)C(C)(C)C)c(C)c1` [LG190155] showed an IC50 in assay [2] of over 1000 nM. The inhibitory constant (Ki) at Vitamin D3 receptor was over 1000 nM.
For the molecule `CCC(CC)(c1ccc(OCC(=O)C(C)(C)C)c(C)c1)c1ccc(OCC2CO2)c(C)c1` (configuration not stated) [LG190176], the IC50 in assay [2] was over 1000 nM. Further, the Ki on Vitamin D3 receptor is over 1000 nM.
The molecule `CCC(CC)(c1ccc(OCC(=O)C(C)(C)C)c(C)c1)c1ccc(OCC(O)CO)c(C)c1` (configuration not stated) [LG190178] displayed a half-inhibitory concentration (IC50) in assay [2] of over 1000 nM.
